US20210386757A1, “Methods of Treating Menopausal Symptoms Using Low Dose Progesterone” (priority 2018, published 2021)

Legend:
[1] = system: symptoms of the menopause transition state; assay: Trial of progesterone for treating symptoms of the menopause transition state (Example 1); type: in vivo, women; conditions: greater than 100 patients, low dose e.g. 25 mg twice a day
Procedure: It is apparent based on initial observations that supplementing with a low dose progesterone alleviates symptoms in women transitioning into menopause. The question then becomes, if a person is experiencing symptoms of estrogen dominance does failing to treat estrogen dominance result in a greater risk of breast cancer, uterine cancer, and cardiovascular disease. Supplementing with progesterone, e.g., at 25 mg twice a day can improve many symptoms associated with menopause transition. […] Micronized progesterone (25 mg) Dosing regimens of interest: One tablet bid (twice a day); Two tablets qhs (each night at bedtime); One tablet qam (every morning), two tablets qhs (each night at bedtime).

[2] = system: symptoms associated with menopause transition; assay: Observational study of low dose oral micronized progesterone in menopause transition, Menopause Rating Scale (MRS); type: in vivo, women
From the text: Women between the ages of 40 to 55 years of age who were experiencing symptoms consistent with menopause transition were offered a trial of a low dose progesterone to alleviate their symptoms. The primary complaint for inclusion in the study was alterations in mood defined as depressive mood, irritability, or anxiety on the Menopause Rating Scale (MRS). A score of 2-4 on these mood changes was required to be included in the study. One additional symptom (sleep problems, hot flushes, physical and mental exhaustion) on the MRS was required, with a minimum score of 1, to be included. Patients with a history of breast cancer, actively trying to conceive, or in menopause were excluded from the study. Menopause was defined as no menses for greater than one year or surgical removal of the ovaries. Patients were consented for a trial of oral micronized progesterone at 25 mg twice a day. Response to treatment was evaluated in the office after 3 months of treatment. Data was collected over a one-year time period, September 2018-September 2019. The menopause transition time, referred to as perimenopause, includes both the early and late perimenopausal group. Patient selection was classified according to STRAW (Stages of Reproductive Aging Workshop) classification. Late perimenopause was defined as menstruation in the previous/last 2-12 months, but not in the previous/last 2 months. Early perimenopause was defined as increasing irregularity of menses without skipping periods (7 days difference) from the beginning of a given cycle to the next. The Menopause Rating Scale was utilized to quantify qualitative symptoms associated with the menopause transition. Given treatment differences in the symptoms that impact person transitioning through menopause, attention was focused on 6 components of the MRS; hot flushes, sleep problems, depressive mood, irritability, anxiety, and physical/mental exhaustion. The scoring scheme increases point by point with increasing severity of subjectively perceived symptoms in each of those 6 items (severity 0 [no complaints] . . . 4 scoring points [very severe symptoms]). The respondent rated their personal symptoms on a 0 to 4 scale for each item. The MRS was chosen as a result of being a reliable measure of quality of life in aging women of various regions over time.

In the case of `CC(=O)[C@H]1CC[C@H]2[C@@H]3CCC4=CC(=O)CC[C@]4(C)[C@H]3CC[C@]12C` [micronized progesterone, progesterone], the “subsequent diagnosis of breast cancer, uterine cancer, or a cardiovascular event” value [1] is reported as “not one patient was subsequently diagnosed with breast cancer, uterine cancer, or a cardiovascular event”, the “response of patients who altered the dosing regimen” value ([2]; once a day or two tablets (50 mg) at night, 14 patients excluded from the study) is reported as “noted benefits and chose to continue the medication” and the “patients with at least a one-point improvement in MRS symptom score, physical and mental exhaustion” value ([2]; oral 25 mg twice a day, 3 months, 12 of 19 patients who noted physical and mental exhaustion) is reported as 63%. For the same compound, the “patients with at least a one-point improvement in MRS symptom score, sleep problems” value ([2]; oral 25 mg twice a day, 3 months, 27 of 32 patients who noted sleep problems) was 84%, the “patients with at least a one-point improvement in MRS symptom score, hot flushes” value ([2]; oral 25 mg twice a day, 3 months, 44 of 48 patients who noted hot flushes) was 92% and the “patients who did not report side effects to the medication” value ([2]; oral 25 mg twice a day, 3 months, of 55 patients evaluated) was 54 patients. The “patients reporting MRS symptom score of 0” value ([2]; oral 25 mg twice a day, at 3 months, 44 of 55 patients) was 80%, the “discontinuation because of a diagnosis of breast cancer, thromboembolic event, or abnormal uterine bleeding” value ([2]; oral 25 mg twice a day, during the study period) was “No patient discontinued the medication” and the “patients with at least a two-point improvement in MRS symptom score related to mood changes” value ([2]; oral 25 mg twice a day, evaluated at 3 months, 52 of 55 patients) was 94.5%. For the same compound, the “discontinuation because of an adverse effect” value ([2]; oral 25 mg twice a day, prior to the 3 month follow up) was “One patient discontinued the medication prior to the 3 month follow up secondary to worsening headaches”.
